Source: patent publication US6413997B1, “3-(substituted phenyl)-5-(substituted heterocyclyl)-1,2,4-triazole compounds” (priority 1998, dated 2002)

Tests used:
Format in all cases: in vivo
[1] = test system: cotton aphids (aphis gossypii); assay: Insecticidal test for cotton aphid, foliar spray on infested squash cotyledons; settings: 50 ppm spray, graded after 3 days, versus untreated check
Protocol: Insecticidal Test for Cotton Aphid (Aphis gossypii)
To prepare spray solutions, 2 mg of each test compound was dissolved into 2 mL of a 90:10 acetone:ethanol solvent. This 2 mL of chemical solution was added to 38 mL of water containing 0.05% Tween 20 surfactant to produce a 50 ppm spray solution.
Squash cotyledons were infested with cotton aphid (all life stages16-20 hours prior to application of spray solution. The solution was sprayed on both sides of each infested squash cotyledon (0.5 mL×2 each side with a sweeping action using a total of 2 mL of spray solution. The plants were allowed to air dry and held for 3 days in a controlled room at 26° C. and 40% RH after which time the test was graded. Grading was by actual count using a dissecting microscope and comparison of test counts to the untreated check. Results are given in Table 1 as percent control based on population reduction versus the untreated.

[2] = test system: twospotted spider mite (tetranychus uriticae); assay: Two-spotted spider mite test, ovicide method on cotton leaf discs; settings: leaf disc dip, 6 days, hatched larvae versus untreated discs
Protocol: Insecticidal Test for Two-spotted Spider Mite (Tetranychus urticae)
Ten adult female two-spotted spider mites were placed on eight 2.2 cm leaf discs of cotton leaf, allowed to oviposit over 24 hours, and thereafter removed. The leaf discs were immersed in 100 ppm test solutions for 3 seconds, then allowed to dry with sixteen discs left untreated as a negative control. Discs were placed on an agar substrate and held at 24° C. and 90% relative humidity for 6 days.

[3] = test system: sweetpotato whitefly (bemisia tabaci); assay: Sweetpotato whitefly test on cotton plants under laboratory conditions; settings: 800 ppm (table footnote), spray on cotton plants with eggs, 21 days, spent pupal cases versus solution-only plants
Protocol: Evaluation of Tests Compounds on Sweetpotato Whitefly (Bemisia tabacia) Under Laboratory Conditions
Four mg of each test compound was dissolved by adding 5 ml of a 90:10 acetone:ethanol solvent mixture to the vial containing the sample compound. […]
Five-week-old cotton plants reared in a greenhouse were stripped of all foliage except for the two uppermost true leaves that were greater than 5 cm in diameter. These plants were then placed into a laboratory colony of whiteflies for three days for oviposition by the colony females. All whiteflies were then removed from the test plants with pressurized air. The spray solution was then applied to the test plants with a hand-held syringe fitted with hollow cone nozzle. One mL spray solution was applied to each leaf top and bottom for a total of 4 mL per plant. Four replications of each test compound utilized a total of 16 mL spray solution. Plants were air dried and then placed in a holding chamber (26° C. and 40% RH for 21 days. Compound efficacy was evaluated by counting, under a dissecting microscope, the number of spent pupal cases per leaf. A spent pupal case represents a whitefly egg that has undergone full development to achieve adult status, thus indicating lack of control.
Percent control based on reduction of spent pupal cases of a test compound compared to solution-only (no test compound sprayed plants is reported in Table 1.

| Compound | CA: activity at 50 ppm against cotton aphids (rating of % mortality / percent control) [1] | TSSM: activity at 100 ppm against twospotted spider mite (rating of % mortality / percent control) [2] | WF: activity at 800 ppm against sweetpotato whitefly (rating of % mortality / percent control) [3] | mortality at 50 ppm ([1]; Aphis gossypii, foliar, 72 h, read-out: CA: activity at 50 ppm against cotton aphids (rating of % mortality / percent control)) | mortality at 100 ppm ([2]; foliar, 144 h, read-out: TSSM: activity at 100 ppm against twospotted spider mite (rating of % mortality / percent control)) |
| --- | --- | --- | --- | --- | --- |
| Cc1cnsc1-c1nc(-c2c(F)cccc2Cl)nn1C [Compound 3] | B (81-90) | A (91-100) | G (Inactive) |  |  |
| Cn1nc(-c2c(F)cccc2F)nc1-c1snc(C#N)c1Br [Compound 4] | A (91-100) | G (Inactive) | G (Inactive) |  |  |
| Cn1nc(-c2c(F)cccc2F)nc1-c1snc(-c2ccccc2)c1Br [Compound 7] | B (81-90) | G (Inactive) | E (51-60) |  |  |
| Cn1nc(-c2c(F)cccc2Cl)nc1-c1snc(-c2ccccc2)c1Br [Compound 8] | B (81-90) | C (71-80) | G (Inactive) |  |  |
| Cn1nc(-c2c(F)cccc2F)nc1-c1cc(-c2ccc(Cl)cc2)ns1 [Compound 9] | E (51-60) |  | G (Inactive) |  |  |
| Cn1nc(-c2c(F)cccc2F)nc1-c1snc(-c2ccc(Cl)cc2)c1Br [Compound 11] | A (91-100) | A (91-100) | G (Inactive) |  |  |
| Cn1nc(-c2c(F)cccc2Cl)nc1-c1snc(-c2ccc(Cl)cc2)c1Br [Compound 12] | A (91-100) | A (91-100) | G (Inactive) |  |  |
| Cn1nc(-c2c(F)cccc2F)nc1-c1snc(-c2ccc([N+](=O)[O-])cc2)c1Br [Compound 15] |  | G (Inactive) | G (Inactive) |  |  |
| Cn1nc(-c2c(F)cccc2F)nc1-c1snc(-c2cccc(C(F)(F)F)c2)c1Br [Compound 16] | B (81-90) | G (Inactive) |  |  |  |
| Cc1cc(-c2nc(-c3c(F)cccc3F)nn2C)on1 [Compound 28] |  | G (Inactive) | B (81-90) |  |  |
| Cn1nc(-c2c(F)cccc2F)nc1-c1cc(C(C)(C)C)no1 [Compound 30] | D (61-70) | G (Inactive) |  |  |  |
| Cc1ncsc1-c1nc(-c2c(F)cccc2F)nn1C [Compound 37] | B (81-90) | A (91-100) |  |  |  |
| Cn1nc(-c2c(F)cccc2F)nc1-c1scnc1Cl [Compound 38] | A (91-100) | A (91-100) | G (Inactive) |  |  |
| Cc1nc(Cl)sc1-c1nc(-c2c(F)cccc2F)nn1C [Compound 39] | A (91-100) | A (91-100) | G (Inactive) |  |  |
| Cc1nc(Cl)sc1-c1nc(-c2c(F)cccc2Cl)nn1C [Compound 40] | A (91-100) | A (91-100) |  |  |  |
| Cc1nc(Br)sc1-c1nc(-c2c(F)cccc2F)nn1C [Compound 41] | A (91-100) | A (91-100) | G (Inactive) |  |  |
| Cc1nc(-c2nc(-c3c(F)cccc3F)nn2C)cs1 [Compound 48] | D (61-70) | G (Inactive) |  |  |  |
| Cc1nc(-c2nc(-c3c(F)cccc3Cl)nn2C)cs1 [Compound 49] |  | C (71-80) |  |  |  |
| Cc1ncoc1-c1nc(-c2c(F)cccc2F)nn1C [Compound 55, 3-(2,6-Difluorophenyl)-5-(4-methyloxazol-5-yl)-1-methyl[1,2,4]triazole] |  |  |  | 0 to 51% | 0 to 51% |
| CCn1nc(C)cc1-c1nc(-c2c(F)cccc2F)nn1C [Compound 60] | B (81-90) | G (Inactive) |  |  |  |
| Cc1cc(-c2nc(-c3c(F)cccc3Cl)nn2C)n(C)n1 [Compound 63] | A (91-100) | G (Inactive) |  |  |  |
| CCn1nc(-c2nc(-c3c(F)cccc3Cl)nn2C)cc1C [Compound 74] | A (91-100) |  |  |  |  |
| Cn1cc(Cl)c(-c2nc(-c3c(F)cccc3Cl)nn2C)n1 [Compound 75] |  | G (Inactive) | B (81-90) |  |  |
| Cc1nn(C)c(Cl)c1-c1nc(-c2c(F)cccc2Cl)nn1C [Compound 76] | B (81-90) | A (91-100) |  |  |  |
| Cn1nc(-c2c(F)cccc2Cl)nc1-c1c(C(F)(F)F)nn(C)c1Cl [Compound 77] |  | A (91-100) |  |  |  |
| CCCc1c(-c2nc(-c3c(F)cccc3F)nn2C)cnn1-c1ccc(Cl)cc1 [Compound 80] |  | G (Inactive) |  |  |  |
| Cc1nc(-c2ccc(Cl)cc2)sc1-c1nc(-c2c(F)cccc2F)nn1C [Compound 90] |  | A (91-100) |  |  |  |
| Cc1nc(C(F)(F)F)sc1-c1nc(-c2c(F)cccc2F)nn1C [Compound 91] | C (71-80) |  |  |  |  |
